Assay results reported in patent publication US20250041309A1 (ZHENAO JINYINHUA PHARMACEUTICAL, priority 2021, published 2025).
Structures can show the parent of a compound that is named as a salt.

Columns and labels:
[1] = Sterilization stability test of aqueous solutions (121° C., 30 minutes, HPLC relevant substances); details: 0.5 mg/ml aqueous solution; for Conclusion (sterilization stability) / Relevant substances after sterilization: sterilized at 121° C. for 30 minutes
Experimental: They were sterilized in a 121° C. sterilizer for 30 minutes, and sampled before and after sterilization. The relevant substances were measured according to the following method:
Relevant substances: taking the samples and dissolving it in the mobile phase to prepare a solution containing 0.5 mg per 1 ml, which was used as the test solution; using octadecylsilane bonded silica gel as the filler, phosphate buffer (800 ml of water, 7 ml of triethylamine added, pH adjusted to 3.0 with phosphoric acid, diluted to 1000 ml with water)-methanol acetonitrile (58:25:17) as the mobile phase, with a detection wavelength of 290 nm.

MCAO rats [2] = test: Forelimb placement test in MCAO rats, injection of Aildenafil phosphate (Example 24); type: in vivo; details: x ± sD, n = 7
Experimental: (§1) • ? Animal selection: healthy SD rats were used as experimental animals. In order to eliminate the impact of individual animal variations on the results, 10 rats were used in each group. […] After 2 hours of cerebral ischemia-reperfusion, the drug was immediately injected into the tail vein for consecutive 7 days.
(§2) On the day of the experiment, the rat was anesthetized with isoflurane gas and fixed in a supine position. The skin was cut along the midline of the neck to expose the right arteriae carotis communis. The nerves and fascia around the blood vessels from the common carotid artery bifurcation to the base of the skull were carefully removed, and the external and internal carotid arteries were separated sequentially. A MCAO suture (250-280 g) was inserted from the free end of the external carotid artery, and the nylon suture was introduced into the internal carotid artery from the distal end of the external carotid artery. It was inserted into the middle cerebral artery in the Willis ring to effectively block the middle cerebral artery. The length of the inserted suture was 18-20 mm away from the bifurcation of the common carotid artery. Then the free end of the external carotid artery was ligated along with intracavity suture to prevent bleeding. The subcutaneous fascia and skin were sutured layer by layer, and penicillin was locally added dropwise to prevent infection. The Sham group only isolated the internal carotid artery. 2 hours after the start of MCAO, the suture was carefully removed from the lumen of the internal carotid artery to allow for reperfusion of the internal carotid artery. Animals were kept in cages. • ? Y Grouping and administration
(§3) The rats successfully modeled with a neurological function score of 8-12 were randomly divided into four groups based on the score: model control group, low-dose 2.5 mg/kg group of test drug, medium dose 5 mg/kg group of test drug, and high-dose 10 mg/kg group of test drug, with 7 rats in each group. […] Immediately after cerebral ischemia-reperfusion for 2 hours, the drug was administered via tail vein injection for consecutive 7 days. The endpoint of the experiment is 14 days after the first administration. Please see Table 7 for details.
(§4) Balance beam and forelimb placement tests were performed after 7 and 14 days administration, respectively.

MCAO rats [3] = test: Balance beam test in MCAO rats, injection of Aildenafil phosphate (Example 24); type: in vivo; details: x ± sD, n = 7
Experimental: as §1, §2, §3, §4

MCAO rats [4] = test: Cerebral infarction range (TTC) in MCAO rats, injection of Aildenafil phosphate (Example 24); type: in vivo, SD rats; details: 14 days; for Improvement rate % of cerebral infarction range: versus model control group; for Infarct size (%): x ± sD, n = 7
Experimental: as §1, §2, §3
After 14 days of medication, rats were anesthetized with isoflurane gas to collect blood and euthanized by cervical vertebrae dislocation. The brain tissue was taken and placed in a −20° C. freezer for freezing, and was sliced from front to back, each slice has a thickness of 2 mm. Brain tissue slices were incubated in a 2% red tetrazolium (TTC) solution at 37° C. for 5 minutes. […] Image J software was used to measure the area of cerebral infarction and the percentage of infarct area to the total brain area was calculated.

[5] = Saturation solubility of Aildenafil salts in water at room temperature; type: physicochemical
[6] = pH measurement of Aildenafil salts dissolved in water; type: physicochemical; details: for 2 mg/ml pH value: 2 mg/ml in water; for 10 mg/ml pH value: 10 mg/ml in water
[7] = Physical and chemical properties of the experimental drugs (Example 23)
MCAO rats [8] = test: Neurological function (behavioral) score in MCAO rats, oral administration (Example 23); type: in vivo, SD rats; details: gavage 8 mg/kg twice a day; after 3, 7 and 14 days administration
Experimental: (§5) Administration route: gavage administration;
(§6) Dosage: 8 mg/kg body weight, twice a day;
(§7) Administration time: gavage administration twice a day in the morning and evening (administered immediately after modeling).
(§8) A rat model of middle cerebral artery ischemia/reperfusion (MCAO/R) was created using suture-occluded method.
After 2 hours of embolization, then reperfusion, according to the scoring criteria in the attached table, the degree of neurological damage in the animals was scored using a blind method. Those with significant neurological deficits (>8 points) were considered successful in modeling.
(§9) The successfully modeled rats were randomly divided into 4 groups based on their scores, with an average of 20 rats in each group.
Neurological function score: evaluation was conducted before treatment, 3 days, 7 days, and 14 days after treatment.

MCAO rats [9] = test: Cerebral infarction range (TTC) in MCAO rats, oral administration (Example 23); type: in vivo, SD rats; details: gavage 8 mg/kg*2, after 14 days; for Improvement rate % of cerebral infarction range: versus model control group; for Total cerebral infarction %: x ± s, n = 20
Experimental: as §5, §6, §7, §8, §9
At the end of the experiment, the brain tissue of the rats was collected by bloodletting and frozen in a −20° C. freezer, and then is sliced into a thickness of 2 mm per slice. The brain tissue slices were placed in a 2% red tetrazolium (TTC) solution and incubated at 37° C. for 5 minutes. The infarcted tissue appeared white, while the non-infarcted tissue appeared red. Image J software was used to measure the area of cerebral infarction and the percentage of infarct area to the total brain area was calculated.

[10] = test system: ischemic stroke model rats; test: Cerebral infarction range (TTC), ischemic stroke model rats, intravenous administration (Example 22); type: in vivo, SD rats; details: 10 mg/kg iv qd 7 d
From the text: (§10) On the day of the experiment, the rat was anesthetized with isoflurane gas and placed in a supine position for fixation. The skin was cut along the midline of the neck to expose the right common carotid artery. The nerves and fascia around the blood vessels from the common carotid artery bifurcation to the base of the skull were carefully removed, and the external and internal carotid arteries were separated sequentially. The MCAO suture was inserted from the free end of the external carotid artery, and the nylon suture was introduced into the internal carotid artery from the distal end of the external carotid artery. It was inserted into the Willis ring of the middle cerebral artery to effectively block the middle cerebral artery. The length of the inserted suture was 18-20 mm away from the bifurcation of the common carotid artery. Then the free end of the external carotid artery was ligated along with the endovascular suture to prevent bleeding. […] Animals were kept in cages. The animals successfully modeled were randomly divided into three groups based on their scores, namely the model control group, compound 1 AD group ([…] citrate group) 10 mg/kg, and compound 2 XD group (Sildenafil citrate group) 10 mg/kg, with 10 animals in each group. […] The endpoint of the experiment was 14 days after administration, and the dosage is detailed in the table below. This experiment was administered intravenously with a dosage of 10 mg/kg and a volume of 5 mL/kg, once per day for consecutive 7 days. At the end of the experiment, the brain tissue of the rats was collected by bloodletting and frozen in a -20° C. freezer, then are sliced with a thickness of 2 mm per slice. The brain tissue slices were placed in a 2% red tetrazolium (TTC) solution and incubated at 37° C. for 5 minutes. The infarcted tissue appeared white, while the non-infarcted tissue appeared red.

[11] = test system: ischemic stroke model rats; test: Neurological function (behavioral) score, ischemic stroke model rats, intravenous administration (Example 22); type: in vivo, SD rats; set-up: scale not given here; details: 10 mg/kg iv qd 7 d, x ± s, n = 10
From the text: as §10, with “cages. After 2 hours of embolization, then reperfusion, according to the scoring criteria in the attached table, the degree of neurological damage in the animals was scored using a blind method. Those with significant neurological deficits (>8 points) were considered successful in modeling. • ? Grouping and administration” for “cages.”, “Score before treatment, 3 days after treatment, 7 days after treatment,” for “At the end of the experiment, the brain tissue of the rats was collected by bloodletting”, “14 days after treatment.” for “frozen in a -20° C. freezer, then are sliced with a thickness of 2 mm per slice. The brain tissue slices were placed in a 2% red tetrazolium (TTC) solution and incubated at 37° C. for 5 minutes. The infarcted tissue appeared white, while the non-infarcted tissue appeared red.”

[12] = 5 mg/kg iv qd 7 d (medium dose)

## CCCc1nn(C)c2c(=O)[nH]c(-c3cc(S(=O)(=O)N4C[C@@H](C)N[C@@H](C)C4)ccc3OCC)nc12 [Aildenafil phosphate]
[1]
  Relevant substances before sterilization: None
  Conclusion (sterilization stability): No changes, stable
  Relevant substances after sterilization: no impurities were found and no impurities are produced and None
MCAO rats [2]; 5 mg/kg iv qd 7 d
  Forelimb left (%), 7 days after medication: 18.57 ± 18.64%
  Forelimb left (%), 14 days after medication: 37.14 ± 30.39 %
  Forelimb right (%), 7 days after medication: 100 ± 0%
  Forelimb right (%), 14 days after medication: 100 ± 0%
MCAO rats [2]; 10 mg/kg iv qd 7 d
  Forelimb left (%), 7 days after medication: 14.29 ± 18.13%
  Forelimb left (%), 14 days after medication: 38.57 ± 28.54 %
  Forelimb right (%), 7 days after medication: 100 ± 0%
  Forelimb right (%), 14 days after medication: 100 ± 0%
MCAO rats [3]; [12]
  balance beam, 7 days after medication: 2.14 ± 0.9 min
  balance beam, 14 days after medication: 4.29 ± 1.38 min
MCAO rats [3]; 10 mg/kg iv qd 7 d (high dose)
  balance beam, 7 days after medication: 2.71 ± 1.25 min
  balance beam, 14 days after medication: 4.29 ± 1.60 min
MCAO rats [4]; 5 mg/kg iv qd 7 d
  Improvement rate % of cerebral infarction range: 46.5%
  Infarct size (%): 13.13 ± 4.12 %
MCAO rats [4]; 10 mg/kg iv qd 7 d
  Improvement rate % of cerebral infarction range: 43.4%
  Infarct size (%): 13.90 ± 4.70 %
[5]
  time to dissolve to be clear in water by hand shaking: 15 s
[6]
  2 mg/ml pH value: 5.47
  10 mg/ml pH value: 5.38

## CCCc1nn(C)c2c(=O)[nH]c(-c3cc(S(=O)(=O)N4C[C@@H](C)N[C@@H](C)C4)ccc3OCC)nc12 [Aildenafil DL-tartrate]
[6]
  2 mg/ml pH value: 3.90
  10 mg/ml pH value: 3.57

## CCCc1nn(C)c2c(=O)[nH]c(-c3cc(S(=O)(=O)N4C[C@@H](C)N[C@@H](C)C4)ccc3OCC)nc12.O=C(O)C(O)C(O)C(=O)O [Aildenafil L-tartrate, L-tartrate (1:1) of 1-[4-ethoxy-3-[5-(6,7-dihydro-1-methyl-7-oxy-3-n-propyl-1H-pyrazolo[4,3-d]pyrimidine)]benzenesulfonyl]-cis-3,5-dimethylpiperazine]
[1]
  Relevant substances before sterilization: None
  Conclusion (sterilization stability): No changes, stable
  Relevant substances after sterilization: no impurities were found and None
[1]; listed as L-tartrate
  Relevant substances after sterilization: no impurities are produced
[5]
  time to dissolve to be clear in water by hand shaking: 15 s
[5]; thermodynamic from solid, room temperature, read-out: Saturated Solubility in water at room temperature
  solubility: ~50 mg/mL
[6]
  2 mg/ml pH value: 3.59
  10 mg/ml pH value: 3.56

## Yukinafil citrate
[7]; DMF or DMSO
  solubility in DMF or DMSO (in words): soluble
[7]; water
  solubility in water (in words): soluble
MCAO rats [8]
  behavioral scores compared with the model control group: trend of improvement
MCAO rats [9]
  Improvement rate % of cerebral infarction range: 13.1%
  Total cerebral infarction %: 21.2 ± 6.3%

## CN1CC(=O)N2[C@H](c3ccc4c(c3)OCO4)c3[nH]c4ccccc4c3C[C@@H]2C1=O [Tadalafil]
MCAO rats [9]
  Improvement rate % of cerebral infarction range: 14.2%
  Total cerebral infarction %: 21.3 ± 6.5%

## CCCc1nn(C)c2c(=O)[nH]c(-c3cc(S(=O)(=O)N4C[C@@H](C)N[C@@H](C)C4)ccc3OCC)nc12 [Aildenafil citrate]
[1]
  Relevant substances before sterilization: None
  Conclusion (sterilization stability): No changes, stable
  Relevant substances after sterilization: no impurities were found and None
[6]
  2 mg/ml pH value: 4.11
  10 mg/ml pH value: Insoluble
[10]; 14 days after administration, x ± s, n = 10
  Total cerebral infarction %: 17.6 ± 7.7 %
[10]; 14 days, versus model control group
  Improvement rate % of cerebral infarction range: 29.6%
[11]; 3 days after medication
  behavioral score, 3 days after medication: 6.9 ± 1.5
[11]; 7 days after medication
  behavioral score, 7 days after medication: 5.5 ± 1.1
[11]; 14 days after medication
  behavioral score, 14 days after medication: 4.3 ± 1.3
[11]; before medication
  behavioral score, Before medication: 9.7 ± 0.5

## CCCc1nn(C)c2c(=O)[nH]c(-c3cc(S(=O)(=O)N4C[C@@H](C)N[C@@H](C)C4)ccc3OCC)nc12 [Aildenafil D-tartrate]
[6]; listed as D-tartrate
  2 mg/ml pH value: 3.84
  10 mg/ml pH value: 3.58
